{"source": "patent US20210213104A1", "about": "“GLUCAGON AND GLP-1 CO-AGONISTS FOR THE TREATMENT OF CHRONIC KIDNEY DISEASE AND DIABETIC KIDNEY DISEASE IN TYPE 2 DIABETES” (MEDIMMUNE LIMITED, priority 2020, published 2021)", "tested_on": "subjects with T2DM and renal impairment", "test": "Phase 2a: mixed-meal tolerance test (MMTT) plasma glucose AUC", "assay_type": "in vivo, human", "settings": "for MMTT plasma glucose AUC4 h, LS Mean % Change / MMTT plasma glucose AUC4 h, Difference in LS Mean % Change (vs Placebo) / Percent Change from Baseline in MMTT plasma glucose AUC4 h, Mean / Percent Change from Baseline in MMTT plasma glucose AUC4 h, Median: Day −5 to Day 32; for MMTT plasma glucose AUC4 h, LS Mean % Change: ANCOVA; for MMTT plasma glucose AUC4 h, LS Mean % Change / MMTT plasma glucose AUC4 h, Difference in LS Mean % Change (vs Placebo) / Percent Change from Baseline in MMTT plasma glucose AUC4 h, Mean / Percent Change from Baseline in MMTT plasma glucose AUC4 h, Median / MMTT plasma glucose AUC4 h, Day 32, Mean / MMTT plasma glucose AUC4 h, Day 32, Median: ITT", "method": "Cotadutide was titrated from 50 μg up to 300 μg and administered once daily by subcutaneous (SC) injection over 32 days.\nCotadutide was administered at 50 μg once daily for 4 days, followed by 100 μg daily for 7 days, 200 μg daily for 7 days, and 300 μg daily for 14 days (n=20). Placebo was administered one daily for 32 days (n=20). Cotadutide and placebo were administered in the morning. Dosing commenced following predose baseline vital signs, blood tests (including HbA1c), an electrocardiogram (ECG), body weight measurement, and bioimpedance spectroscopy (BIS). Subjects then returned for daily dosing or remained overnight locally until Day 5, and thereafter, had visits at weekly intervals until a maintenance dose of 300 μg was established. Thus, Cotadutide or placebo was administered at the study site by study personal for the first four doses and on site on Days 5, 12, 19, and 32. At all other times, subjects preformed dosing at home.\nThe effect of Cotadutide titrated up to a dose level of 300 μg on glucose control vs placebo after 32 days of treatment was assessed by a standardized mixed-meal tolerance test (MMTT) to determine the percentage change in glucose from area under the concentration-time curve (AUC) from baseline (Day −5) to the end of 32 days of treatment.\nFollowing a minimum 8-hour fast, the subject underwent an MMTT, which involved the consumption of a standardized liquid meal (Ensure Plus, a nutritional supplement containing the components of fat, carbohydrate, and protein, which make up a standard MMTT) within 15 minutes, and timed serial blood samples were obtained for measurement of glucose through 240 minutes after consumption of the standardized meal (with no additional food intake during this time). Blood was drawn within 15 minutes before consuming the standardized liquid meal (i.e., “0 minutes”), and at 15, 30, 45, 60, 90, 120, 180, and 240 minutes (±5 minutes) after consumption. Blood sampling occurred as close as possible to the specified times for the MMTT. At Day 32, the serial blood sampling begins 2.5 hours after Cotadutide or placebo administration.\nSubjects who used a quick acting or pre-mixed form of insulin with breakfast received their usual/current dose of breakfast-time insulin with the Ensure Plus milkshake i.e., dose reduction of insulin was not required. Subjects who carbohydrate counted or varied insulin dose in relation to meal type were advised that the Ensure Plus milkshake contained approximately 44.4 g of carbohydrate, 10.8 g of fat, and 13.8 g of protein and to adjust their insulin dose on this basis. The timing of insulin administration in relation to the Ensure Plus milkshake consumption was in accordance with the usual regimen used by the subject, e.g., if a subject injected insulin 30 minutes before breakfast, they were to inject insulin 30 minutes before the Ensure Plus milkshake.\nThe investigators also considered whether a dose reduction in insulin and/or sulfonylurea or glitinide was required for this fasting assessment on Day 32.\nThe change in the mixed-meal tolerance test (MMTT) plasma glucose AUC from the baseline (Day −5) to end of 32 days of treatment was evaluated in the ITT population using an analysis of covariance (ANCOVA) model. The model included fixed effect of treatment and baseline AUC as a covariate. The difference of the percent change in glucose AUC between the two treatment arms was compared with a two-sided significance level of 0.10.", "note": "Where “and” joins values, the source holds several entries; their conditions need not be identical. Equal values may be shown once."}
{"smiles": "CCCCCCCCCCCCCCCC(=O)N[C@@H](CCC(=O)NCCCC[C@H](NC(=O)[C@H](CC(=O)O)NC(=O)[C@H](CO)NC(=O)[C@@H](NC(=O)[C@H](Cc1ccccc1)NC(=O)[C@@H](NC(=O)CNC(=O)[C@H](CCC(N)=O)NC(=O)[C@H](CO)NC(=O)[C@@H](N)Cc1c[nH]cn1)[C@@H](C)O)[C@@H](C)O)C(=O)N[C@@H](CO)C(=O)N[C@@H](CCC(=O)O)C(=O)N[C@@H](Cc1ccc(O)cc1)C(=O)N[C@@H](CC(C)C)C(=O)N[C@@H](CC(=O)O)C(=O)N[C@@H](CO)C(=O)N[C@@H](CCC(=O)O)C(=O)N[C@@H](CCCNC(=N)N)C(=O)N[C@@H](C)C(=O)N[C@@H](CCCNC(=N)N)C(=O)N[C@@H](CC(=O)O)C(=O)N[C@@H](Cc1ccccc1)C(=O)N[C@H](C(=O)N[C@@H](C)C(=O)N[C@@H](Cc1c[nH]c2ccccc12)C(=O)N[C@@H](CC(C)C)C(=O)N[C@@H](CCC(=O)O)C(=O)N[C@@H](C)C(=O)NCC(=O)NCC(=O)O)C(C)C)C(=O)O", "note": "[Cotadutide]", "values": [{"measurement": "MMTT plasma glucose AUC4 h, LS Mean % Change", "setting": "Insulin Dose < 20 U/day", "result": "−27.16", "unit": "%"}, {"measurement": "MMTT plasma glucose AUC4 h, LS Mean % Change", "setting": "Insulin Dose ≥ 20 U/day", "result": "−25.313", "unit": "%"}, {"measurement": "MMTT plasma glucose AUC4 h, LS Mean % Change", "setting": "Total", "result": "−26.71% and −26.7%"}, {"measurement": "MMTT plasma glucose AUC4 h, LS Mean % Change", "setting": "Total, listed as MEDI0382", "result": "−26.71", "unit": "%"}, {"measurement": "MMTT plasma glucose AUC4 h, LS Mean % Change", "setting": "eGFR 30-44 mL/min/1.73 m^2", "result": "−27.59", "unit": "%"}, {"measurement": "MMTT plasma glucose AUC4 h, LS Mean % Change", "setting": "eGFR 45-59 mL/min/1.73 m^2", "result": "−27.95", "unit": "%"}, {"measurement": "MMTT plasma glucose AUC4 h, Difference in LS Mean % Change (vs Placebo)", "setting": "Insulin Dose < 20 U/day", "result": "−36.37", "unit": "%"}, {"measurement": "Percent Change from Baseline in MMTT plasma glucose AUC4 h, Mean", "setting": "Insulin Dose < 20 U/day", "result": "−31.99", "unit": "%"}, {"measurement": "Percent Change from Baseline in MMTT plasma glucose AUC4 h, Median", "setting": "Insulin Dose < 20 U/day", "result": "−36.99", "unit": "%"}, {"measurement": "MMTT plasma glucose AUC4 h, Difference in LS Mean % Change (vs Placebo)", "setting": "Insulin Dose ≥ 20 U/day", "result": "−25.751", "unit": "%"}, {"measurement": "Percent Change from Baseline in MMTT plasma glucose AUC4 h, Mean", "setting": "Insulin Dose ≥ 20 U/day", "result": "−25.00", "unit": "%"}, {"measurement": "Percent Change from Baseline in MMTT plasma glucose AUC4 h, Median", "setting": "Insulin Dose ≥ 20 U/day", "result": "−22.850", "unit": "%"}, {"measurement": "MMTT plasma glucose AUC4 h, Difference in LS Mean % Change (vs Placebo)", "setting": "Total", "result": "−30.38", "unit": "%"}, {"measurement": "Percent Change from Baseline in MMTT plasma glucose AUC4 h, Mean", "setting": "Total", "result": "−27.719", "unit": "%"}, {"measurement": "Percent Change from Baseline in MMTT plasma glucose AUC4 h, Median", "setting": "Total", "result": "−27.45", "unit": "%"}, {"measurement": "MMTT plasma glucose AUC4 h, Difference in LS Mean % Change (vs Placebo)", "setting": "eGFR 30-44 mL/min/1.73 m^2", "result": "−31.64", "unit": "%"}, {"measurement": "Percent Change from Baseline in MMTT plasma glucose AUC4 h, Mean", "setting": "eGFR 30-44 mL/min/1.73 m^2", "result": "−24.41", "unit": "%"}, {"measurement": "Percent Change from Baseline in MMTT plasma glucose AUC4 h, Median", "setting": "eGFR 30-44 mL/min/1.73 m^2", "result": "−22.90", "unit": "%"}, {"measurement": "MMTT plasma glucose AUC4 h, Difference in LS Mean % Change (vs Placebo)", "setting": "eGFR 45-59 mL/min/1.73 m^2", "result": "−32.87", "unit": "%"}, {"measurement": "Percent Change from Baseline in MMTT plasma glucose AUC4 h, Mean", "setting": "eGFR 45-59 mL/min/1.73 m^2", "result": "−29.83", "unit": "%"}, {"measurement": "Percent Change from Baseline in MMTT plasma glucose AUC4 h, Median", "setting": "eGFR 45-59 mL/min/1.73 m^2", "result": "−37.00", "unit": "%"}, {"measurement": "MMTT plasma glucose AUC4 h, Day 32, Mean", "setting": "Insulin Dose < 20 U/day", "result": 594.85, "unit": "mg·h/dL"}, {"measurement": "MMTT plasma glucose AUC4 h, Day 32, Median", "setting": "Insulin Dose < 20 U/day", "result": 599.41, "unit": "mg·h/dL"}, {"measurement": "MMTT plasma glucose AUC4 h, Day 32, Mean", "setting": "Insulin Dose ≥ 20 U/day", "result": 679.23, "unit": "mg·h/dL"}, {"measurement": "MMTT plasma glucose AUC4 h, Day 32, Median", "setting": "Insulin Dose ≥ 20 U/day", "result": 700.08, "unit": "mg·h/dL"}, {"measurement": "MMTT plasma glucose AUC4 h, Day 32, Mean", "setting": "Total", "result": 646.42, "unit": "mg·h/dL"}, {"measurement": "MMTT plasma glucose AUC4 h, Day 32, Median", "setting": "Total", "result": 619.33, "unit": "mg·h/dL"}, {"measurement": "MMTT plasma glucose AUC4 h, Day 32, Mean", "setting": "eGFR 30-44 mL/min/1.73 m^2", "result": 618.21, "unit": "mg·h/dL"}, {"measurement": "MMTT plasma glucose AUC4 h, Day 32, Median", "setting": "eGFR 30-44 mL/min/1.73 m^2", "result": 700.10, "unit": "mg·h/dL"}, {"measurement": "MMTT plasma glucose AUC4 h, Day 32, Mean", "setting": "eGFR 45-59 mL/min/1.73 m^2", "result": 664.37, "unit": "mg·h/dL"}, {"measurement": "MMTT plasma glucose AUC4 h, Day 32, Median", "setting": "eGFR 45-59 mL/min/1.73 m^2", "result": 605.70, "unit": "mg·h/dL"}, {"measurement": "postprandial plasma glucose concentrations on Day 32", "setting": "pre-standardized liquid meal to 180 minutes post meal", "result": "lower than placebo"}]}
